Experimental data published in patent US10357537B2, “Cyclotides as immunosuppressive agents” (priority 2011, dated 2019).
Several values for one entry are separate records, joined by “and”; a condition that tells them apart may be missing. Equal values may be shown once. Bridge positions count the residues as written; N and C are the ends. Peptide text beside a SMILES is read from it.

Columns and labels:
IL-2 release in PBMCs = experiment: IL-2 release of PBMC, ELISA-based FACS; type: cell-based, human; settings: PHA-L 24 h, PMA/ionomycin 6 h; T20K 4 μM, CsA 5 μg/mL
Protocol: Following purification, PBMCs were equilibrated for 2 h at 37° C. […] This was followed by washing of each well with 100 μl PBS (centrifugation for 5 min, 1000 rpm, 20° C.) and re-suspending the cells in 100 μl medium for further assays.
Activated cells were resuspended in 50 μl of medium, transferred into a 96-well plate and treated with 10 μg/ml PHA-L. After incubation for 24 h cells were re-stimulated with PMA (50 ng/ml) und ionomycin (500 ng/ml) for 6 h. Next, the cells were transferred into Eppendorf tubes, centrifuged (5 min, 3000 RPM, 20° C.) und 50 μl of the supernatant was again transferred into new tubes and stored at −20° C. Production of cytokines was measured and quantified using the FlowCytomix™ kit according to manufacturer's instructions.
To analyze the mechanism of cyclotide-mediated anti-proliferation of T-lymphocytes, their effect on the direct release of IL-2 in PBMCs was determined. The cells were treated with a cyclotide and activated with PHA-L. After 24 h the cells were re-stimulated with PMA and ionomycin and the IL-2 concentration in the supernatant (released IL-2) was measured with an ELISA-based FACS methodology (FIG. 12A).

[1] = system: degranulation marker LAMP-1 (CD107a) on activated PBMC; experiment: CD107a degranulation analysis; type: cell-based, human; settings: after 36 h; T20K 4 μM, CsA 5 μg/mL
Protocol: FIG. 16. Degranulation capacity of cyclotide-treated activated human PBMC. […] After 36 hour of cultivation the cells were restimulated with PMA/Ionomycin for 2.5 hours in the presence of a CD107a mAbs and GolgiStop reagent to determine the amount of degranulation by flow cytometry. Representative data are shown in dot plots (A) and in (B) data are presented as mean and standard deviation (SD) of three independent experiments.
Activated cells were grown for 36 h and then treated for re-stimulation with PMA (50 ng/ml) und ionomycin (500 ng/ml) and stained with CD107a PE. After 1 h the reaction was stopped with 2 μl Golgi-Stop (1:10) and incubated for 2.5 h at 37° C. The cells were transferred into a 96-well plate, centrifuged (5 min, 1000 RPM, 20° C.) and washed with 100 μl FACS-buffer. Afterwards, PBMCs were stained with CD8 PE-Cy5 for 15 min at 4° C. and following to wash cycles with FACS-buffer the cells were resuspended in 100 μl, transferred into FACS vials with a total volume of 250 μl and the degranulation was measured by FACS analysis.
After determining the influence of cyclotide treatment on the effector function of PBMCs on the basis of measuring IFN-gamma and TNF-alpha cytokine levels, it is of interest to determine an effect of cyclotides on the degranulation activity. Activation of cytotoxic CD8^+-lymphocytes lead to a release of cytolytic granules, which contain/express lysosomal-associated membrane protein 1 (CD107; LAMP-1). During degranulation, the granule vesicle membranes fuse with the membranes of activated CD8^+-lymphocytes and therefore LAMP-1 can be used as a marker protein for the cytotoxic activity of T-lymphocytes, which can be measured with FACS. After 36 h, 42%±21.4 of the CsA- and 49%±16.8 of the T20K-treated cells contain the degranulation marker LAMP-1 as compared to the control (FIG. 16). This can be interpreted in the way that CsA- and T20K-treated cells have reduced cytotoxicity.

[2] = system: IL2 release in human T-cells; experiment: IL2 release in human T-cells, ELISA; type: cell-based; settings: CsA, T20K 4 μM, V10K 4 μM; PHA-L, PMA/ionomycin
Protocol: B. IL2 release in human T-cells after treatment with cyclotide. […] After another two hours PHA-L (10 μg/mL) was added to the appropriate wells and incubated over night at 37° C. On the next day T-cells were re-stimulated with Ionomycin (500 ng/mL) and PMA (50 ng/mL) for 6 hours at 37° C. Cells were then centrifuged at 3000 rpm for 5 minutes to gain their supernatants. Supernatants of stimulated T-cells were analyzed for their IL2 release using a human IL-2 ELISA Kit from eBioscience according to the manufacturer's instructions. The color reaction was evaluated at an optical density of 450 nm by the microplate reader Synergy H4 (BioTek).
Moreover, supernatants of stimulated T-cells were analyzed for their IL2 release using a human IL-2 ELISA Kit from eBioscience according to the manufacturer's instructions. The color reaction was evaluated at an optical density of 450 nm by the microplate reader Synergy H4 (BioTek) (FIG. 12B).

Jurkat cells = experiment: Ca2+ release, Fura-2; type: cell-based, human; settings: CsA, T20K 4 μM, V10K 4 μM
Protocol: FIG. 17. Ca^2+ release in human Jurkat and T-cells. Jurkat cells (A) and T-cells (B) 1×10^6 were loaded with 1 μM Fura-2 and 0.02% Puronic F-127 for 30 minutes at 37° C. Cells were centrifuged for 5 minutes at 1200 rpm and resuspended in media [RPMI 1640 with 10% FCS, penicillin (100 U/mL) and streptomycin ([…])]. 100 μL of cell suspension were transferred to a black 96-well plate with a clear flat-bottom. Briefly before analysis the fluorometer Synergy H4 (BioTek) was tempered to 37° C. The fluorescence time course was then measured with: extinction 340/380 nm and emission 510 nm in 30 seconds intervals, continuously shaking. Ca^2+ influx was initiated by adding compounds to the cells (illustrated by the arrow). To receive maximum Ca^2+ release cells were stimulated with PMA (50 ng/mL) and Ionomycin (500 ng/mL) and T-cells additionally with PHA-L (10 μg/mL). For lowest Ca^2+ levels, cells remained untreated.
Jurkat cells T-cells were treated as described for FIG. 17, supra.

nematodes = experiment: Relative nematocidal activity (other assays, Table 2); type: in vivo; settings: some cells print two values separated by a slash

With CC(C)C[C@@H]1NC(=O)CNC(=O)[C@H](CC(N)=O)NC(=O)[C@H](CCCNC(=N)N)NC(=O)[C@H]([C@@H](C)O)NC(=O)[C@@H]2CSSC[C@@H]3NC(=O)[C@H]([C@@H](C)O)NC(=O)CNC(=O)CNC(=O)[C@H](C(C)C)NC(=O)[C@@H]4CSSC[C@H](NC(=O)[C@H](CCCCN)NC(=O)[C@H](CSSC[C@H](NC(=O)[C@H](C(C)C)NC(=O)[C@@H]5CCCN5C1=O)C(=O)NCC(=O)N[C@@H](CCC(=O)O)C(=O)N[C@@H]([C@@H](C)O)C(=O)N4)NC(=O)CNC(=O)[C@@H]1CCCN1C(=O)[C@H]([C@@H](C)O)NC(=O)[C@H](CC(N)=O)NC3=O)C(=O)N[C@@H](CO)C(=O)N[C@@H](Cc1c[nH]c3ccccc13)C(=O)N1CCC[C@H]1C(=O)N[C@@H](C(C)C)C(=O)N2 [Kalata T20K] (cyclo(CGETCVGGTCNTPGCKCSWPVCTRNGLPV); disulfide 1-15, 5-17, 10-22 (inferred); ring closure inferred) the “IL-2 release as compared to the control cells” value (IL-2 release in PBMCs) was 24%±18.6, the “cells containing the degranulation marker LAMP-1 as compared to the control” value [1] was 49%±16.8 and the “IL2 release in human T-cells” value [2] was “significant inhibition of cell proliferation in accordance to the IL2 level”. For the same compound, the “Ca2+ signaling in Jurkat cells” value (Jurkat cells) was “did not induce a change in Ca^2+ signaling” and the “Relative activity in other assays (fold difference to kB1): nematocidal” value (nematodes) was 3.0 fold difference to kB1 and 2.6 fold difference to kB1.

“kalata B1 mutant GLPVCGETCKGGTCNTPGCTCSWPVCTRN (SEQ ID No. 10) [Kalata V10K]” was tested, and the “IL-2 release as compared to the control cells” value (IL-2 release in PBMCs) was “no effect on the release of IL-2”, the “cells containing the degranulation marker LAMP-1 as compared to the control” value [1] was “no influence on the degranulation activity” and the “IL2 release in human T-cells” value [2] was “comparable results”. For the same compound, the “Ca2+ signaling in Jurkat cells” value (Jurkat cells) was “did not induce a change in Ca^2+ signaling” and the “Relative activity in other assays (fold difference to kB1): nematocidal” value (nematodes) was <0.2 fold difference to kB1.
